In assay [1] the test system is Candida albicans ATCC 10231. As to the kind of experiment: Fungicidal activity, serial dilution technique. Conditions: average of three ± SD, - means non-active; for MIC: read-out: Minimum Inhibitory Concentration (MIC), Ca. It is filed as cell-based. The protocol: (§1) The synthesized compounds were tested for antimicrobial activity against a number of Gram-positive bacteria, Staphylococcus aureus (Sa), Bacillus cereus (Bc) and Enterococcus faecalis (Ef), and Gram-negative bacteria, Escherichia coli (Ec) and Pseudomonas aeruginosa (Pa), including the methicillin-resistant strains S. aureus MRSA-1 (resistant to fluoroquinolones and beta-lactams) and MRSA-2 (resistant to beta-lactams). The methicillin-resistant strains S. aureus were transferred by the Republican Clinical Hospital of the Republic of Tatarstan (Kazan). The fungicidal activity against Candida albicans (Ca) and Trichophyton mentagrophytes var. gypseum (Tm) was studied. These pathogens were chosen because they are the most widespread in the food industry and the healthcare system.
(§2) The antimicrobial activity of the QPSs was determined using the serial dilution technique in Mueller–Hinton Broth 2. The cultures used for testing included the Gram-positive bacteria Staphylococcus aureus ATCC 6538P FDA 209P, Enterococcus faecalis ATCC 2921 and Bacillus cereus ATCC 10702 NCTC 8035, the Gram-negative bacteria Escherichia coli ATCC 25922 and Pseudomonas aeruginosa ATCC 9027, and the fungi Trichophyton mentagrophytes var. gypseum 1773 and Candida albicans ATCC 10231; methicillin-resistant strains of S. aureus MRSA were obtained from hospital patients with chronic tonsillitis (MRSA-1) and sinusitis (MRSA-2) in the Republican Clinical Hospital (Kazan, Russia). Ciprofloxacin and ketoconazole were purchased from Sigma-Aldrich. The bacterial load was 3.0 × 10^5 cfu/mL. The results were recorded every 24 h for 5 days. The cultures were incubated at 37 °C. The experiment was repeated three times. […] The minimum inhibitory concentration (MIC) was defined as the minimum concentration of a compound that inhibits the growth of the corresponding test micro-organism. The growth of bacteria as well as the absence of growth due to the bacteriostatic action of a compound was recorded.

Assay [2] concerns Trichophyton mentagrophytes var. gypseum 1773. As to the kind of experiment: Fungicidal activity, serial dilution technique. Format: cell-based. The note with it: Tm, average of three ± SD, - means non-active. Here is the method:
as §1, §2

The subject of assay [3] is Escherichia coli ATCC 25922. As to the kind of experiment: Antimicrobial activity, serial dilution technique in Mueller–Hinton Broth 2. Conditions: average of three ± SD, - means non-active; for MIC: Escherichia coli, ATCC25922, Ec, read-out: Minimum Inhibitory Concentration (MIC), Ec. It is filed as cell-based. The protocol:
as §1
as §2, with “Ciprofloxacin and ketoconazole were purchased from Sigma-Aldrich.” left out

The test system of assay [4] is Staphylococcus aureus ATCC 6538P FDA 209P. The assay is described as above. It is filed as cell-based. The note with it: average of three ± SD, - means non-active. Here is the method:
as §1
as §2, with “Ciprofloxacin and ketoconazole were purchased from Sigma-Aldrich.” left out

Assay [5] deals with Pseudomonas aeruginosa ATCC 9027. The assay is described as above. It is filed as cell-based. The note with it: average of three ± SD, - means non-active; for MBC: read-out: Minimum Bactericidal and Fungicidal Concentration (MBC, MFC), Pa. Here is the method: as §1
as §2, with “Ciprofloxacin and ketoconazole were purchased from Sigma-Aldrich.” left out

Assay [6] relates to Bacillus cereus ATCC 10702 NCTC 8035. The description is as above. It is filed as cell-based. The note with it: average of three ± SD, - means non-active. The protocol:
as §1
as §2, with “Ciprofloxacin and ketoconazole were purchased from Sigma-Aldrich.” left out

Assay [7] relates to Enterococcus faecalis ATCC 2921. Described as above. It is filed as cell-based. The note with it: average of three ± SD, - means non-active. The protocol:
as §1
as §2, with “Ciprofloxacin and ketoconazole were purchased from Sigma-Aldrich.” left out

Assay [8] relates to methicillin-resistant S. aureus MRSA-2. Described as above. It is filed as cell-based, Staphylococcus aureus. The note with it: - means non-active; for Minimum Inhibitory Concentration (MIC), MRSA-2 / MIC: MRSA-2 (resistant to beta-lactams); for MIC: Staphylococcus aureus, MRSA, read-out: Minimum Inhibitory Concentration (MIC), MRSA-2. The protocol: as §1
as §2, with “Ciprofloxacin and ketoconazole were purchased from Sigma-Aldrich.” left out

Assay [9] deals with methicillin-resistant S. aureus MRSA-1. The assay is described as above. Conditions: - means non-active; for Minimum Inhibitory Concentration (MIC), MRSA-1 / MIC: MRSA-1 (resistant to fluoroquinolones and beta-lactams); for MIC: read-out: Minimum Inhibitory Concentration (MIC), MRSA-1. Format: cell-based, Staphylococcus aureus. The protocol: as §1
as §2, with “Ciprofloxacin and ketoconazole were purchased from Sigma-Aldrich.” left out

The subject of assay [10] is Escherichia coli ATCC 25922. Described as above. Format: cell-based. The note with it: average of three ± SD, - means non-active.
The mark [11] stands for this setting: Candida albicans, ATCC10231, Ca.
The mark [12] stands for this setting: Pseudomonas aeruginosa, ATCC9027, Pa.

As to `CCCCCCCCCCCC[P+](C(C)(C)C)(C(C)(C)C)C(C)(C)C` [Compound 12b], in assay [1], the “Minimum Bactericidal and Fungicidal Concentration (MBC, MFC), Ca” value came to 15.6 ± 1.3 µg/mL; the “Minimum Inhibitory Concentration (MIC), Ca” value is recorded as 15.6 ± 1.3 µg/mL. Further, in assay [2], the “Minimum Bactericidal and Fungicidal Concentration (MBC, MFC), Tm” value was 62.5 ± 5.2 µg/mL; the “Minimum Inhibitory Concentration (MIC), Tm” value turned out to be 31.3 ± 2.4 µg/mL. Moreover, the “Minimum Inhibitory Concentration (MIC), Ec” value in [3] stood at 15.6 ± 1.3 µg/mL. The “Minimum Inhibitory Concentration (MIC), Sa” value in assay [4] was found to be 0.5 ± 0.03 µg/mL. In [5], the “Minimum Bactericidal and Fungicidal Concentration (MBC, MFC), Pa” value is on record as 125 ± 10 µg/mL; the “Minimum Inhibitory Concentration (MIC), Pa” value is given as 125 ± 11 µg/mL. For the same compound, in assay [6], the “Minimum Bactericidal and Fungicidal Concentration (MBC, MFC), Bc” value came to 62.5 ± 5.5 µg/mL; the “Minimum Inhibitory Concentration (MIC), Bc” value is recorded as 1.9 ± 0.01 µg/mL. Besides, in assay [7], the “Minimum Bactericidal and Fungicidal Concentration (MBC, MFC), Ef” value is recorded as 15.6 ± 1.3 µg/mL; the “Minimum Inhibitory Concentration (MIC), Ef” value came to 1.9 ± 0.02 µg/mL. Besides, in assay [8], the “Minimum Inhibitory Concentration (MIC), MRSA-2” value was found to be 0.5 ± 0.04 µg/mL; the “Minimum Bactericidal and Fungicidal Concentration (MBC, MFC), MRSA-2” value came to 31.3 ± 2.7 µg/mL. Also, the “Minimum Inhibitory Concentration (MIC), MRSA-1” value in assay [9] is recorded as 1.9 ± 0.1 µg/mL. In assay [10], the “Minimum Bactericidal and Fungicidal Concentration (MBC, MFC), Ec” value turned out to be 15.6 ± 1.2 µg/mL.
Consider `CCCCCCCCCCCCC[P+](C(C)(C)C)(C(C)(C)C)C(C)(C)C` [Compound 13a, tri-tert-butyl(n-tridecyl)phosphonium], for which, in [1], the “Minimum Bactericidal and Fungicidal Concentration (MBC, MFC), Ca” value came out at 31.3 ± 2.2 µg/mL. Moreover, the MIC in assay [1] (setting [11]) turned out to be 15.6 ± 1.2 µg/mL; in assay [2] (Trichophyton mentagrophytes, read-out: Minimum Inhibitory Concentration (MIC), Tm) it was 125 ± 10 µg/mL; in [3], 3.9 ± 0.02 µg/mL; in [4] (Staphylococcus aureus, Sa, read-out: Minimum Inhibitory Concentration (MIC), Sa), 0.2 ± 0.01 µg/mL; in [6] (Bacillus cereus, Bc, read-out: Minimum Inhibitory Concentration (MIC), Bc), 0.9 ± 0.07 µg/mL; in assay [8] it was 0.3 ± 0.02 µg/mL. The MIC in assay [9] (Staphylococcus aureus, MRSA) stood at 0.5 ± 0.04 µg/mL. For the same compound, the MBC was 125 ± 10 µg/mL in assay [2] (Trichophyton mentagrophytes, read-out: Minimum Bactericidal and Fungicidal Concentration (MBC, MFC), Tm); 31.3 ± 2.4 µg/mL in assay [5] (setting [12]); 7.8 ± 0.6 µg/mL in [7] (Enterococcus faecalis, ATCC2921, Ef, read-out: Minimum Bactericidal and Fungicidal Concentration (MBC, MFC), Ef); 0.3 ± 0.02 µg/mL in assay [9] (Staphylococcus aureus, MRSA, MRSA-1, read-out: Minimum Bactericidal and Fungicidal Concentration (MBC, MFC), MRSA-1); 3.9 ± 0.2 µg/mL in assay [10] (Escherichia coli, ATCC25922, Ec, read-out: Minimum Bactericidal and Fungicidal Concentration (MBC, MFC), Ec). In addition, the “Minimum Bactericidal and Fungicidal Concentration (MBC, MFC), Sa” value in [4] was determined as 0.5 ± 0.04 µg/mL. Further, in [5], the “Minimum Inhibitory Concentration (MIC), Pa” value is recorded as 15.6 ± 1.3 µg/mL. In assay [6], the “Minimum Bactericidal and Fungicidal Concentration (MBC, MFC), Bc” value is listed as 7.8 ± 0.6 µg/mL. Also, the “Minimum Inhibitory Concentration (MIC), Ef” value in assay [7] is 3.9 ± 0.3 µg/mL. In assay [8], the “Minimum Bactericidal and Fungicidal Concentration (MBC, MFC), MRSA-2” value was found to be 0.5 ± 0.03 µg/mL.
As for `CCCCCCCCCCCCC[P+](C(C)(C)C)(C(C)(C)C)C(C)(C)C` [Compound 13b], in assay [1], the “Minimum Bactericidal and Fungicidal Concentration (MBC, MFC), Ca” value was 7.8 ± 0.6 µg/mL; the “Minimum Inhibitory Concentration (MIC), Ca” value is recorded as 7.8 ± 0.5 µg/mL. In assay [2], the “Minimum Bactericidal and Fungicidal Concentration (MBC, MFC), Tm” value was 62.5 ± 5.3 µg/mL; the “Minimum Inhibitory Concentration (MIC), Tm” value was found to be 62.5 ± 5.2 µg/mL. The “Minimum Inhibitory Concentration (MIC), Ec” value in assay [3] was 7.8 ± 0.6 µg/mL. Besides, in assay [4], the “Minimum Bactericidal and Fungicidal Concentration (MBC, MFC), Sa” value was found to be 0.2 ± 0.01 µg/mL; the “Minimum Inhibitory Concentration (MIC), Sa” value is 0.2 ± 0.01 µg/mL. In addition, in assay [5], the “Minimum Bactericidal and Fungicidal Concentration (MBC, MFC), Pa” value turned out to be 31.3 ± 2.2 µg/mL; the “Minimum Inhibitory Concentration (MIC), Pa” value came out at 31.3 ± 2.3 µg/mL. In addition, in assay [6], the “Minimum Bactericidal and Fungicidal Concentration (MBC, MFC), Bc” value is 31.3 ± 2.3 µg/mL; the “Minimum Inhibitory Concentration (MIC), Bc” value was 0.5 ± 0.04 µg/mL. Moreover, in assay [7], the “Minimum Bactericidal and Fungicidal Concentration (MBC, MFC), Ef” value is 3.9 ± 0.3 µg/mL; the “Minimum Inhibitory Concentration (MIC), Ef” value came to 1.9 ± 0.1 µg/mL. Also, in assay [8], the “Minimum Inhibitory Concentration (MIC), MRSA-2” value is recorded as 0.3 ± 0.01 µg/mL; the “Minimum Bactericidal and Fungicidal Concentration (MBC, MFC), MRSA-2” value was determined as 3.9 ± 0.3 µg/mL. Besides, in assay [9], the “Minimum Inhibitory Concentration (MIC), MRSA-1” value is on record as 0.3 ± 0.02 µg/mL. Also, the “Minimum Bactericidal and Fungicidal Concentration (MBC, MFC), MRSA-1” value in assay [9] (MRSA-1) is 0.5 ± 0.03 µg/mL. Besides, the “Minimum Bactericidal and Fungicidal Concentration (MBC, MFC), Ec” value in [10] was determined as 7.8 ± 0.6 µg/mL.
On to `CCCCCCCCCCCCCC[P+](C(C)(C)C)(C(C)(C)C)C(C)(C)C` [Compound 14a], for which the MBC in assay [1] (Candida albicans, ATCC10231, Ca, read-out: Minimum Bactericidal and Fungicidal Concentration (MBC, MFC), Ca) came to 15.6 ± 1.2 µg/mL; in [4] (Staphylococcus aureus, Sa, read-out: Minimum Bactericidal and Fungicidal Concentration (MBC, MFC), Sa), 1.9 ± 0.1 µg/mL; in [5] (setting [12]), 125 ± 11 µg/mL; in [6] (Bacillus cereus, Bc, read-out: Minimum Bactericidal and Fungicidal Concentration (MBC, MFC), Bc), 15.6 ± 1.3 µg/mL. The MIC in [1] (setting [11]) was determined as 7.8 ± 0.6 µg/mL; in assay [3] it was 1.9 ± 0.1 µg/mL; in [5] (Pseudomonas aeruginosa, ATCC9027, Pa, read-out: Minimum Inhibitory Concentration (MIC), Pa), 15.6 ± 1.1 µg/mL; in assay [8] it was 0.5 ± 0.04 µg/mL; in [9] (Staphylococcus aureus, MRSA) it was 0.5 ± 0.03 µg/mL. Besides, the “Minimum Bactericidal and Fungicidal Concentration (MBC, MFC), Tm” value in assay [2] was determined as 125 ± 10 µg/mL. Besides, the “Minimum Inhibitory Concentration (MIC), Tm” value in [2] turned out to be 125 ± 11 µg/mL. Also, in assay [4], the “Minimum Inhibitory Concentration (MIC), Sa” value worked out at 1.9 ± 0.2 µg/mL. The “Minimum Inhibitory Concentration (MIC), Bc” value in assay [6] is reported as 7.8 ± 0.6 µg/mL. For the same compound, the “Minimum Bactericidal and Fungicidal Concentration (MBC, MFC), Ef” value in assay [7] is reported as 3.9 ± 0.2 µg/mL. Also, in [7], the “Minimum Inhibitory Concentration (MIC), Ef” value amounted to 1.9 ± 0.1 µg/mL. The “Minimum Bactericidal and Fungicidal Concentration (MBC, MFC), MRSA-2” value in assay [8] is recorded as 62.5 ± 5.3 µg/mL. Besides, the “Minimum Bactericidal and Fungicidal Concentration (MBC, MFC), MRSA-1” value in assay [9] (MRSA-1) is 7.8 ± 0.6 µg/mL. For the same compound, the “Minimum Bactericidal and Fungicidal Concentration (MBC, MFC), Ec” value in assay [10] was 1.9 ± 0.1 µg/mL.

For the origin of these results see publication PMC8744835, “Sterically Hindered Quaternary Phosphonium Salts (QPSs): Antimicrobial Activity and Hemolytic and Cytotoxic Properties” (International Journal of Molecular Sciences, 2021).
